Columns and labels:
Format in all cases: cell-based, human
SLAMF7-RPMI = experiment: IFN-gamma ELISA, CAR T cells cultured overnight with SLAMF7-RPMI target cells
Source text: (§1) MM.1S is a SLAMF7^+ multiple myeloma cell line that was obtained from American Type Culture Collection (ATCC). A549 is a BCMA-negative lung cancer cell line (ATCC). TC71 is a BCMA-negative sarcoma cell line. CCRF-CEM, 293T, and A549 are SLAMF7-negative cell lines (ATCC). COL0207, HepG2, U251, Panc10.05, and TC71 are […] that were kind gifts from Dr. Steven Rosenberg, National Cancer Institute. SLAMF7-K562 are K562 cells (ATCC) which were transduced with the gene for full-length SLAMF7. SLAMF7-RPMI are RPMI8226 cells (ATCC) which were transduced with the gene for full-length SLAMF7. NGFR-K562 are K562 cells which were transduced with the gene for low-affinity nerve growth factor (Kochenderfer et al., J. Immunother., 32(7): 689-702 (2009)). All of the human samples mentioned were obtained from patients enrolled in IRB-approved clinical trials at the National Cancer Institute.
One-hundred thousand SLAMF7^+ or SLAMF7-negative target cells were combined with 100,000 CAR-transduced T cells in duplicate wells of a 96 well round bottom plate in 200 µL of AIM V™ medium (Invitrogen) plus 5% human serum. The plates were incubated at 37° C. for 18-20 hours. Following the incubation, ELISAs (enzyme-linked immunosorbent assays) for IFNγ were performed by using standard methods.
The T cells columns indicate whether T cells were transduced with Luc90-CD828Z, Luc63-CD828Z, or were untransduced. The % CAR^+ in Table B-1 was determined by staining the T cells with Protein L. Except for the % CAR^+ column, all values are pg/mL of IFN-gamma. T cells that were either untransduced or transduced with one of the indicated CARs were cultured with target cells overnight and a standard IFN-gamma ELISA was performed on the culture supernatant.
All values are pg/mL of IFN-gamma. T cells that were either untransduced or transduced with one of the indicated CARs were cultured with target cells overnight, and a standard IFN-gamma ELISA was performed on the culture supernatant.
The values in the cells are pg/mL of IFN-gamma. T cells that were either untransduced or transduced with one of the indicated CARs were cultured with target cells overnight, and a standard IFN-gamma ELISA was performed on the culture supernatant. The concentrations of 0, 50, or 200 ng/mL at the top of each column indicates the concentration of soluble SLAMF7 added to all T cell plus target cell overnight cultures in that column. The soluble SLAMF7 was added at the beginning of the overnight culture.

293T = experiment: IFN-gamma ELISA, CAR T cells with 293T target cells; conditions: Table B-1; SLAMF7-negative cell line
Source text: as §1
(§2) One-hundred thousand SLAMF7^+ or SLAMF7-negative target cells were combined with 100,000 CAR-transduced T cells in duplicate wells of a 96 well round bottom plate in 200 µL of AIM V™ medium (Invitrogen) plus 5% human serum. […]
(§3) The T cells columns indicate whether T cells were transduced with Luc90-CD828Z, Luc63-CD828Z, or were untransduced. The % CAR^+ in Table B-1 was determined by staining the T cells with Protein L. Except for the % CAR^+ column, all values are pg/mL of IFN-gamma. […]

Panc 10.05 = experiment: IFN-gamma ELISA, CAR T cells with Panc 10.05 target cells; conditions: Table B-2
Source text: as §1, §2, §3

A549 = experiment: IFN-gamma ELISA, CAR T cells with A549 target cells; conditions: Table B-2; SLAMF7-negative
Source text: as §1, §2, §3

SLAMF7^+ MM.1S cells = experiment: CD107a degranulation assay; conditions: CD4^+ and CD8^+ T cells, cultured with MM.1S versus NGFR-K562, 4 hours
Description: For each T cell culture that was tested, two tubes were prepared. One tube contained MM.1S cells, and the other tube contained NGFR-K562 cells. Both tubes contained CAR-transduced T cells, 1 ml of AIM V™ medium (Invitrogen) plus 5% human AB serum, a titrated concentration of an anti-CD107a antibody (eBioscience, clone eBioH4A3, ThermoFisher Scientific), and 1 μL of GOLGISTOP™ (a protein transport inhibitor containing monensin, BD Biosciences). All tubes were incubated at 37° C. for 4 hours and then stained for CD3, CD4, and CD8.

With “Luc90-CD828Z: anti-SLAMF7 CAR (SEQ ID NO: 27): murine Luc90 scFv, human CD8a hinge and TM, CD28 and CD3ζ domains; tested as transduced T cells” the “IFN-gamma, target cells SLAMF7-RPMI” value (SLAMF7-RPMI; Table B-1, overnight culture, ELISA on supernatant) was 21293 pg/mL, the “IFN-gamma, target cells SLAMF7-RPMI8226” value (SLAMF7-RPMI; Table C, overnight culture) was 20832 pg/mL and the “IFN-gamma, target cells SLAMF7 RPMI 0 ng/ml” value (SLAMF7-RPMI; Table D, soluble SLAMF7 added 0 ng/ml) was 23538 pg/mL. For the same substance, the “IFN-gamma, target cells SLAMF7 RPMI 50 ng/ml” value (SLAMF7-RPMI; Table D, soluble SLAMF7 added 50 ng/ml) was 23.315 ng/mL, the “IFN-gamma, target cells CD319 RPMI 200 ng/ml” value (SLAMF7-RPMI; Table D, soluble SLAMF7 added 200 ng/ml) was 21301 pg/mL and the “IFN-gamma, target cells 293T” value (293T) was 37 pg/mL. For the same substance, the “IFN-gamma, target cells Panc 10.05” value (Panc 10.05) was 36 pg/mL, the “IFN-gamma, target cells A549” value (A549) was 79 pg/mL and the “CD107a upregulation (degranulation)” value (SLAMF7^+ MM.1S cells) was “degranulated”.
